Assay results reported in US10179123B2, “2-aryl- and 2-arylalkyl-benzimidazoles as mIDH1 inhibitors” (BAYER PHARMA AKTIENGESELLSCHAFT, priority 2015, dated 2019).

Legend:
[1] = molecular target: mutated isocitrate dehydrogenase (mIDH) protein, LN229 R132H cells (Homo sapiens (Human), UniProt O75874, R132H); assay: Mutant IDH1 cellular assay (2-HG in medium of LN229 R132H cells); format: cell-based; conditions: 2-HG levels in medium, 24 hours
Experimental: Mutant IDH1 Cellular Assay
They were harvested by trypsin and seeded into 96-well plates. Cells were incubated overnight at 37° C. in 5% CO2. The next day test compounds were added to each cell well. The final concentration of DMSO was 0.1% and DMSO controls were included. The plates were then placed in an incubator for 24 hours.
2-HG was measured according to Balss et al. (Acta Neuropathol (2012) 124: 883-891). Briefly, HClO4 was added to each well and the plates were centrifuged. Aliquots are removed and incubated with hydroxyglutarate dehydrogenase (HGDH), diaphorase, NAD+, and resazurin. The conversion of resazurin to resorufin was detected by fluorescence spectroscopy at Ex 540 nm Em 600 nm. The increase in fluorescence is proportional to 2-HG production. IC50 values are determined by interpolation from plots of relative fluorescence vs inhibitor concentration.

IDH1 R132H enzyme = IDH1 R132H enzyme (Homo sapiens (Human), UniProt O75874, R132H); assay: Mutant IDH1 R132H biochemical assay; conditions: NADPH consumption, luminescent readout; 1.5 nM enzyme, 1 μM NADPH, 250 μM α-KG, 30 minutes, 32° C.
Experimental: NADPH consumption was measured by luminescent readout. […] The final DMSO concentration was 2.4%. […] Luminescence was measured on a luminescent reader (10 seconds measuring time, 1 second integration period, 30% sensitivity). The decrease in luminescence is proportional to mIDH1 activity. IC50 values are determined by interpolation from plots of relative luminescence versus inhibitor concentration.

IDH1 R132H enzyme, sequence (O75874 whole entry R132H): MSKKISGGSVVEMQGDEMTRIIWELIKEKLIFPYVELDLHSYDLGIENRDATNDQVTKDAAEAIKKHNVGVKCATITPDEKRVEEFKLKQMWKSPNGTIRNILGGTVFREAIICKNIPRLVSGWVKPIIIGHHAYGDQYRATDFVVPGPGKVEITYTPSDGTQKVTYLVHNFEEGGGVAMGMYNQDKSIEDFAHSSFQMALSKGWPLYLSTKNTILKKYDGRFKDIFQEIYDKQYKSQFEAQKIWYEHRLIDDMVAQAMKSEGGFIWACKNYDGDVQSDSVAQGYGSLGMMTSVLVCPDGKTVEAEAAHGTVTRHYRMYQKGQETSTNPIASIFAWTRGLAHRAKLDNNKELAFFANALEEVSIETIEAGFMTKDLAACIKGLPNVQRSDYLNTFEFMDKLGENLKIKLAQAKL
mutated isocitrate dehydrogenase (mIDH) protein, LN229 R132H cells, sequence (O75874 whole entry R132H): as above

Row | IC50 [1] [nM] | IC50 (IDH1 R132H enzyme) [nM] | SMILES
1 | 160 | 30 | COc1cc2c(cc1C(=O)O)nc(Cc1ccc(OC(F)(F)F)cc1)n2[C@@H]1C[C@H](C)CC(C)(C)C1 (racemic) [Example 2-45]
2 | 350 | 50 | CC(C)c1ccc(Cc2nc3cc(C(=O)O)ccc3n2[C@@H]2C[C@H](C)CC(C)(C)C2)cc1 (stereo in doubt) [Example 2-33]
3 | 170 | 70 | Cc1cc2c(cc1C(=O)O)nc(Cc1ccc(OC(F)(F)F)cc1)n2[C@@H]1C[C@H](C)CC(C)(C)C1 (stereo in doubt) [Example 2-44]
4 | 1900 | 120 | C[C@H]1C[C@@H](n2c(Cc3ccc(C(F)(F)F)cc3)nc3cc(C(=O)O)ccc32)CC(C)(C)C1 (stereo in doubt) [Example 2-34]
5 | 800 | 80 | CC1(C)CC(n2c(Cc3ccc(OC(F)(F)F)cc3)nc3c(F)c(C(=O)O)ccc32)CC(C)(C)C1 [Example 2-48]
6 | 2700 | 250 | CC(C)Oc1ccc(Cc2nc3cc(C(=O)O)ccc3n2[C@@H]2C[C@H](C)CC(C)(C)C2)cc1 (stereo in doubt) [Example 2-32]
7 | 1800 | 150 | COC(=O)c1cc2nc(Cc3ccc(OC(F)(F)F)cc3)n([C@H]3C[C@@H](C)CC(C)(C)C3)c2cc1C (racemic) [Example 2-18, (±) methyl 6-methyl-2-[4-(trifluoromethoxy)benzyl]-1-[(cis)-3,3,5-trimethylcyclohexyl]-1H-benzimidazole-5-carboxylate]
8 | 2500 | 50 | C[C@H]1C[C@@H](n2c(Cc3ccc(C(C)(C)C)cc3)nc3cc(C(=O)O)ccc32)CC(C)(C)C1 (stereo in doubt) [Example 2-37]
9 | 210 | 30 | COc1cc2c(cc1CCC(=O)O)nc(Cc1ccc(OC(F)(F)F)cc1)n2[C@@H]1C[C@H](C)CC(C)(C)C1 (racemic) [Example 2-50]
10 | 1800 | 80 | CC1(C)CC(n2c(Cc3ccc(OC(F)(F)F)cc3)nc3c(F)c(CCC(=O)O)ccc32)CC(C)(C)C1 [Example 2-52, 3-{4-fluoro-1-(3,3,5,5-tetramethylcyclohexyl)-2-[4-(trifluoromethoxy)benzyl]-1H-benzimidazol-5-yl}Propanoic Acid]
11 |  | 2800 | COC(=O)c1cc2nc(Cc3ccc(OC(F)(F)F)cc3)n([C@H]3C[C@@H](C)CC(C)(C)C3)c2cc1OC(C)C (racemic) [Example 2-20, (±) methyl 6-(propan-2-yloxy)-2[4-(trifluoromethoxy)benzyl]-1-[(cis)-3,3,5-trimethylcyclohexyl]-1H-benzimidazole-5-carboxylate]
12 |  | 670 | COC(=O)c1ccc2c(c1)nc(Cc1ccc(OC(F)(F)F)cc1)n2[C@H]1C[C@@H](C)CC(C)(C)C1 (racemic) [Example 2-3, (±) methyl 2-[4-(trifluoromethoxy)benzyl]-1-[(cis)-3,3,5-trimethylcyclohexyl]-1H-benzimidazole-5-carboxylate]
13 |  | 1500 | COC(=O)c1ccc2c(c1)nc(Cc1ccc(C(F)(F)F)cc1)n2[C@H]1C[C@@H](C)CC(C)(C)C1 (racemic) [Example 2-8, (±) methyl 2-[4-(trifluoromethyl)benzyl]-1-[(cis)-3,3,5-trimethylcyclohexyl]-1H-benzimidazole-5-carboxylate]
14 | 3000 | 330 | COC(=O)c1ccc2c(c1)nc(Cc1ccc(C(C)C)cc1)n2[C@H]1C[C@@H](C)CC(C)(C)C1 (racemic) [Example 2-7, (±) methyl 2-[4-(propan-2-yl)benzyl]-1-[(cis)-3,3,5-trimethylcyclohexyl]-1H-benzimidazole-5-carboxylate]
15 | 1500 | 330 | CC(C)Oc1cc2c(cc1C(=O)O)nc(Cc1ccc(OC(F)(F)F)cc1)n2[C@@H]1C[C@H](C)CC(C)(C)C1 (stereo in doubt) [Example 2-46]
16 | 280 | 80 | Cc1cc2c(cc1CCC(=O)O)nc(Cc1ccc(OC(F)(F)F)cc1)n2[C@@H]1C[C@H](C)CC(C)(C)C1 (stereo in doubt) [Example 2-49]
17 |  | 1800 | C[C@H]1C[C@@H](n2c(Cc3cccc(OC(F)(F)F)c3)nc3cc(C(=O)O)ccc32)CC(C)(C)C1 (stereo in doubt) [Example 2-40]
18 |  | 1300 | C[C@H]1C[C@@H](n2c(Cc3ccc(F)cc3)nc3cc(C(=O)O)ccc32)CC(C)(C)C1 (stereo in doubt) [Example 2-35]

The remaining lines, values behind:

Row | SMILES | IC50 [1] [nM] | IC50 (IDH1 R132H enzyme) [nM]
19 | COc1cc2c(cc1C(=O)O)nc(Cc1ccc(OC(F)(F)F)cc1)n2[C@@H]1C[C@H](C)CC(C)(C)C1 (single isomer, unassigned) [Example 2-45-1] | 1600 | 300
20 | COC(=O)c1cc2nc(Cc3ccc(OC(F)(F)F)cc3)n([C@H]3C[C@@H](C)CC(C)(C)C3)c2cc1C (single isomer, unassigned) [Example 2-18-1, methyl 6-methyl-2-[4-(trifluoromethoxy)benzyl]-1-[(cis)-3,3,5-trimethylcyclohexyl]-1H-benzimidazole-5-carboxylate] | 2600 | 140
21 | Cc1cc2c(cc1C(=O)O)nc(Cc1ccc(OC(F)(F)F)cc1)n2[C@@H]1C[C@H](C)CC(C)(C)C1 (stereo in doubt) [Example 2-44-1] | 400 | 20
22 | CC(C)Oc1ccc(Cc2nc3cc(C(=O)O)ccc3n2[C@H]2C[C@@H](C)CC(C)(C)C2)cc1 (stereo in doubt) [Example 2-32-2] | 2500 | 300
23 | CC(C)Oc1cc2c(cc1C(=O)O)nc(Cc1ccc(OC(F)(F)F)cc1)n2[C@@H]1C[C@H](C)CC(C)(C)C1 (stereo in doubt) [Example 2-46-1] | 600 | 120
24 | Cc1cc2c(cc1C(=O)O)nc(Cc1ccc(OC(F)(F)F)cc1)n2[C@H]1C[C@@H](C)CC(C)(C)C1 (stereo in doubt) [Example 2-44-2] | 2600 | 130
25 | COc1cc2c(cc1CCC(=O)O)nc(Cc1ccc(OC(F)(F)F)cc1)n2[C@H]1C[C@@H](C)CC(C)(C)C1 (stereo in doubt) [Example 2-50-2] | 380 | 20
26 | COc1cc2c(cc1CCC(=O)O)nc(Cc1ccc(OC(F)(F)F)cc1)n2[C@@H]1C[C@H](C)CC(C)(C)C1 (single isomer, unassigned) [Example 2-50-1] | 3600 | 200
27 | C[C@@H]1C[C@H](n2c(Cc3ccc(OC(F)(F)F)cc3)nc3cc(C(=O)O)c(OCC(F)(F)F)cc32)CC(C)(C)C1 (stereo in doubt) [Example 2-47-2] |  | 650
28 | COC(=O)c1ccc2c(c1)nc(C(C)c1ccc(OC(F)(F)F)cc1)n2[C@H]1C[C@@H](C)CC(C)(C)C1 (single isomer, unassigned) [Reference compound 2-4-3, methyl 2-{1-[4-(trifluoromethoxy)phenyl]ethyl}-1-[(cis)-3,3,5-trimethylcyclohexyl]-1H-benzimidazole-5-carboxylate, reference compound] |  | 5000
29 | COc1cc2c(cc1C(=O)O)nc(Cc1ccc(OC(F)(F)F)cc1)n2[C@H]1C[C@@H](C)CC(C)(C)C1 (stereo in doubt) [Example 2-45-2] | 120 | 20
